These results are taken from patent US12686673B2 (Blueprint Medicines Corporation, priority 2020, dated 2026).

Read-outs that look alike come from different tables or passages of the source.

Type in all cases: cell-based
Assay [1] has as its target EGFR(D770_N771insSVD) expressing Ba/F3 stable cell line (Homo sapiens, UniProt P00533, DUP768-770, cells depend on it). The experiment in a line: Cellular proliferation (Alamar Blue) assay, EGFR D770_N771insSVD Ba/F3. Conditions: 72 hr, read-out: D770 IC50. Here is the method:
(§1) • 1. EGFR(D770_N771insSVD) expressing Ba/F3 stable cell line • 2. EGFR (A767_dupASV) expressing Ba/F3 stable cell line • 3. A431 cells • 4. EGFR (H773insNPH) expressing Ba/F3 stable cell line • 5. HER2 (A775_G776insYVMA) expressing Ba/F3 stable cell line Assay Procedure: • 1. Seed cells at 5000 for A431 and 15,000 cells for Ba/F3 in 100 μL/well in complete media (for A431: DMEM with […] and for Ba/F3 cells: RPMI with 10% FBS) in 96-well tissue culture plate. Leave outer wells without cells for background measurements. Incubate at 37 degree Celsius in […] humidified incubator for 16-18 hours. • 2. Add 0.025 ml of 5× concentration compound dilution or DMSO control. Final compound concentration range is 10-0.0005 μM prepared in 3-fold serial dilutions. Incubate for 72 hr at 37 degree Celsius in […] humidified incubator. • 3. Add 0.0125 ml Alamar Blue™ reagent to each well with multi-channel pipette and tap gently on each side of the plate to mix. Incubate for 3 hours at 37 degree Celsius in 5% CO2 humidified incubator. • 4. […] Data analysis was performed using XLfit 5.5.0.5.

Assay [2] has as its target EGFR (A767_dupASV) expressing Ba/F3 stable cell line (Homo sapiens, UniProt P00533, DUP767-769, cells depend on it). Briefly: Cellular proliferation (Alamar Blue) assay, EGFR A767_dupASV Ba/F3. The settings on record: 72 hr, read-out: A767 IC50. The procedure:
as §1
Background: Resazurin is reduced to fluorescent resorufin, in cell work by metabolically active cells.

The subject of the next assay is A431 cells. The experiment in a line: Cellular proliferation (Alamar Blue) assay, A431. Here is the method:
as §1

Where [3] appears, read: Homo sapiens, A-431; A431 cells, Alamar Blue, 72 hr; read-out: A431 IC50.
Setting [4] is: Homo sapiens, A-431; A431 cells, 72 hr, Alamar Blue; read-out: A431 IC50.

Sequence of EGFR(D770_N771insSVD) expressing Ba/F3 stable cell line (P00533 with tags, fused parts or gaps DUP768-770): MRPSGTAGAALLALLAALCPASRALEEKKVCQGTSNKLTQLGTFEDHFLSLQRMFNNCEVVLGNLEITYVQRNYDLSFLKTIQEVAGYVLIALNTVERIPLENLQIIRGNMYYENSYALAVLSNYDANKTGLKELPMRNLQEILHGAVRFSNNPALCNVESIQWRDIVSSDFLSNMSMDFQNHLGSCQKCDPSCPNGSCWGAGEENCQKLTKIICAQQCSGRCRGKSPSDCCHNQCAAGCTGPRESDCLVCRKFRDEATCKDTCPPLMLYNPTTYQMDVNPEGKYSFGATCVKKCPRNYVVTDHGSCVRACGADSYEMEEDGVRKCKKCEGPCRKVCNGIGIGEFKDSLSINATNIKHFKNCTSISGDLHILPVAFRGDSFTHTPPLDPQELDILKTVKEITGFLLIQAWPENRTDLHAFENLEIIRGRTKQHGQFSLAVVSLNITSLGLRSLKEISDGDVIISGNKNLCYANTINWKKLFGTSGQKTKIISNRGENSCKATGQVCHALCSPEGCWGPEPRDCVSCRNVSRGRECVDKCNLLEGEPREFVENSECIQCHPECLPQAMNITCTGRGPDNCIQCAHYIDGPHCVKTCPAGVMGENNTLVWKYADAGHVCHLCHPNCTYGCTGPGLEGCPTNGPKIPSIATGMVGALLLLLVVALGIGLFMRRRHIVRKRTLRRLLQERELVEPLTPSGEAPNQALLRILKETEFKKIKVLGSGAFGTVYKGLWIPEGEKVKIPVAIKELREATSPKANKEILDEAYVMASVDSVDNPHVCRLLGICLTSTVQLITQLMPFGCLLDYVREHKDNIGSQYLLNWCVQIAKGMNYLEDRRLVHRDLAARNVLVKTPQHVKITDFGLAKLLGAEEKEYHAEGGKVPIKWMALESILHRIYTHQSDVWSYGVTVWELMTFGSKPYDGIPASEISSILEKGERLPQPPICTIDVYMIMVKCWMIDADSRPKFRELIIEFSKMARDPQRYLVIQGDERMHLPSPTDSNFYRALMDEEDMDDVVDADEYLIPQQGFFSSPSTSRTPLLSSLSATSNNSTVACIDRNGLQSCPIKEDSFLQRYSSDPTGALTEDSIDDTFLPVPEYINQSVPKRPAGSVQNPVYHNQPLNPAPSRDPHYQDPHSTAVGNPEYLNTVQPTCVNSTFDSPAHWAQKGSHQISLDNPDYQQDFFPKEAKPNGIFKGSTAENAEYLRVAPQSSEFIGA
Sequence of EGFR (A767_dupASV) expressing Ba/F3 stable cell line (P00533 with tags, fused parts or gaps DUP767-769): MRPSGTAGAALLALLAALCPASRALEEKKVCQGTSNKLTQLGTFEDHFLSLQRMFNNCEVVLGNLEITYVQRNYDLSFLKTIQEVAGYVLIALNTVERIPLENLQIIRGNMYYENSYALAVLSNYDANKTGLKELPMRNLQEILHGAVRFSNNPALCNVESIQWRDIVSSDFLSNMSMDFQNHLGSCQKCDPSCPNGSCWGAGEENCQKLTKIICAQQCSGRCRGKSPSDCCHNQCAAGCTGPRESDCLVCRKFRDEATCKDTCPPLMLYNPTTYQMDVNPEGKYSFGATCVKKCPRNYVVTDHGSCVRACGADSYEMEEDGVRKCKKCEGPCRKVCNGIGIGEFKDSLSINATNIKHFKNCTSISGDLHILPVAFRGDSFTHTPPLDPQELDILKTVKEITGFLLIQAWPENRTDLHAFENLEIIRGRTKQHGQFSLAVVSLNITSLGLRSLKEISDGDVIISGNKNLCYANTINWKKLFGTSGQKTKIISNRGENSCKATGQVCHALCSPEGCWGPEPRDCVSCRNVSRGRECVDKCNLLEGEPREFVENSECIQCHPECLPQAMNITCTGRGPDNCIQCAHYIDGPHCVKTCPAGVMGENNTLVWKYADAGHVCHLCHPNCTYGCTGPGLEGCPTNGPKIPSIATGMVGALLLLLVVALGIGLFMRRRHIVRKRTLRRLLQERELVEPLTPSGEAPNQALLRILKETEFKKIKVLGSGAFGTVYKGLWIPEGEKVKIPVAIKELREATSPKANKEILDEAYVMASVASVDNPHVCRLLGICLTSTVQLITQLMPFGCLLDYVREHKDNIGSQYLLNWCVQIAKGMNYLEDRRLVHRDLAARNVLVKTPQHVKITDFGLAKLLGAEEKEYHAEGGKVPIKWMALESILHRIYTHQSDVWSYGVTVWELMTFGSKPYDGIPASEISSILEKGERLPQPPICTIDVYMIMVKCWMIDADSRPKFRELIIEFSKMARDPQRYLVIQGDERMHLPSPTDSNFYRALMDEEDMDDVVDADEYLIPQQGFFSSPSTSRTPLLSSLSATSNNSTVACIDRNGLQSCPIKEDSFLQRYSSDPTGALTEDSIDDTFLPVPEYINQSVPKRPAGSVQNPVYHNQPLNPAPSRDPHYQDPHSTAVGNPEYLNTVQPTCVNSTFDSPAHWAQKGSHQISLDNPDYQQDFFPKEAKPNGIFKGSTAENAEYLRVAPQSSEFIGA

Broadly, the IC50 is the concentration that inhibits the measured activity by half. Consider `C=CC(=O)Nc1ccc(C(F)(F)F)c(Oc2nc(Nc3cnn(C)c3)ncc2Cl)c1` [Compound 169, N-(3-((5-chloro-2-((1-methyl-1H-pyrazol-4-yl)amino)pyrimidin-4-yl)oxy)-4-(trifluoromethyl)phenyl)acrylamide], for which the GI50 in assay [1] is above 10 µM; in assay [2], 8.95 µM. For the same compound, the IC50 with A431 cells (setting [3]) worked out at 9.69 µM.

For `C=CC(=O)Nc1ccc(OC)c(Oc2nc(Nc3cnn(CCO)c3)ncc2Cl)c1` [Compound 171, N-(3-((5-chloro-2-((1-(2-hydroxyethyl)-1H-pyrazol-4-yl)amino)pyrimidin-4-yl)oxy)-4-methoxyphenyl)acrylamide], the GI50 in assay [1] and in assay [2] was above 10 µM in each case. Also, the IC50 with A431 cells (setting [3]) is above 10 µM.

On to `CN(C)C/C=C/C(=O)Nc1cccc(F)c1CNc1nc(Nc2cnn(C)c2)ncc1Cl` [Compound 174, (E)-N-(2-(((5-chloro-2-((1-methyl-1H-pyrazol-4-yl)amino)pyrimidin-4-yl)amino)methyl)-3-fluorophenyl)-4-(dimethylamino)but-2-enamide], for which the GI50 in assay [1] and in assay [2] was above 10 µM in each case. For the same compound, the IC50 in the assay with A431 cells (setting [3]) was above 10 µM.

`C=CC(=O)Nc1ccc(C#Cc2ccccc2)c(Nc2nc(Nc3cnn(C)c3)ncc2Cl)c1` [Compound 178, N-[3-({5-chloro-2-[(1-methyl-1H-pyrazol-4-yl)amino]pyrimidin-4-yl}amino)-4-(2-phenylethynyl)phenyl] prop-2-enamide]: the GI50 in assay [1] and in assay [2] was above 10 µM throughout. Besides, the IC50 with A431 cells (setting [3]) is 9.97 µM.

Turning to `C=CC(=O)Nc1ccc(F)c(Nc2nc(NC3CC3)ncc2-c2ccc(C(F)(F)F)cc2)c1` [Compound 180, N-(3-{[2-(cyclopropylamino)-5-[4-(trifluoromethyl)phenyl]pyrimidin-4-yl]amino}-4-fluorophenyl)prop-2-enamide], the GI50 in assay [1] and in assay [2] was above 10 µM each time. Besides, the IC50 in the assay on A431 cells (setting [3]) is above 10 µM.

Consider `C=CC(=O)Nc1ccc(F)c(Nc2nc(NC3CCC3)ncc2-c2ccc(C(F)(F)F)cc2)c1` [Compound 181, N-(3-((2-(cyclobutylamino)-5-(4-(trifluoromethyl)phenyl)pyrimidin-4-yl)amino)-4-fluorophenyl)acrylamide], for which the GI50 in assay [1] and in assay [2] was above 10 µM in each case. Also, the IC50 in the assay with A431 cells (setting [3]) is above 10 µM.

For `C=CC(=O)Nc1cccc(Oc2cc(Nc3cnn(C)c3)ncc2-c2ccc(C(F)(F)F)cc2)c1` [Compound 182, N-[3-({2-[(1-methyl-1H-pyrazol-4-yl)amino]-5-[4-(trifluoromethyl)phenyl]pyridin-4-yl}oxy)phenyl]prop-2-enamide; trifluoroacetic acid], the GI50 in assay [1] stood at 9.98 µM; in assay [2], 7.47 µM. Further, the IC50 in the assay with A431 cells (setting [3]) turned out to be 6.11 µM.

As to `C=CC(=O)Nc1cccc(Oc2nc(Nc3cnn(C)c3)ncc2-c2cncc(C)c2)c1` [Compound 183, N-[3-({2-[(1-methyl-1H-pyrazol-4-yl)amino]-5-(5-methylpyridin-3-yl)pyrimidin-4-yl}oxy)phenyl]prop-2-enamide], the figures for the GI50 in assay [1] and in assay [2] were 0.32 µM and 0.286 µM, respectively. In addition, the IC50 with A431 cells (setting [3]) came out at 0.292 µM.

In the case of `C=CC(=O)Nc1cccc(Oc2nc(Nc3ccccc3Cl)ncc2-c2ccc(C(F)(F)F)cc2)c1` [Compound 189, N-(3-((2-((2-chlorophenyl)amino)-5-(4-(trifluoromethyl)phenyl)pyrimidin-4-yl)oxy)phenyl)acrylamide], the GI50 in assay [1] and in assay [2] was above 10 µM throughout. Besides, the IC50 with A431 cells (setting [3]) was determined as 8.13 µM.

As for `C=CC(=O)Nc1cccc(Oc2nc(Nc3cnn(C)c3)ncc2C2=CCN(C)CC2)c1` [Compound 190, N-(3-((5-(1-methyl-1,2,3,6-tetrahydropyridin-4-yl)-2-((1-methyl-1H-pyrazol-4-yl)amino)pyrimidin-4-yl)oxy)phenyl)acrylamide], the GI50 amounted to 8.86 µM in assay [1] and 9.04 µM in assay [2]. In the assay on A431 cells (setting [3]), the IC50 amounted to 6.76 µM.

In the case of `C=CC(=O)Nc1cccc(Oc2nc(Nc3ccc(N4CCN(C)CC4)cc3OC)ncc2-c2ccc(C(F)(F)F)cc2)c1` [Compound 191, N-(3-((2-((2-methoxy-4-(4-methylpiperazin-1-yl)phenyl)amino)-5-(4-(trifluoromethyl)phenyl)pyrimidin-4-yl)oxy)phenyl)acrylamide], the GI50 in assay [1] was above 10 µM; in assay [2] it was 9.65 µM. For the same compound, in the assay with A431 cells (setting [3]), the IC50 came out at 0.898 µM.

As for `C=CC(=O)Nc1cccc(Oc2nc(Nc3cnn(C)c3)ncc2C2=CCOCC2)c1` [Compound 192, N-(3-((5-(3,6-dihydro-2H-pyran-4-yl)-2-((1-methyl-1H-pyrazol-4-yl)amino)pyrimidin-4-yl)oxy)phenyl)acrylamide], the GI50 in assay [1] stood at 0.267 µM; in assay [2], 0.241 µM. In the assay on A431 cells (setting [3]), the concentration for half-maximal inhibition (IC50) is 0.258 µM.

Consider `C=CC(=O)Nc1cccc(Oc2nc(Nc3ccccc3OC)ncc2-c2ccc(C(F)(F)F)cc2)c1` [Compound 193, N-[3-({2-[(2-methoxyphenyl)amino]-5-[4-(trifluoromethyl)phenyl]pyrimidin-4-yl}oxy)phenyl]prop-2-enamide], for which the GI50 in assay [1] and in assay [2] was above 10 µM throughout. The IC50 in the assay with A431 cells (setting [3]) stood at 8.76 µM.

For `C=CC(=O)Nc1cccc(Oc2nc(NC3CC3)ncc2-c2ccc(C(F)(F)F)cc2)c1` [Compound 194, N-(3-((2-(cyclopropylamino)-5-(4-(trifluoromethyl)phenyl)pyrimidin-4-yl)oxy)phenyl)acrylamide], the GI50 in assay [1] and in assay [2] was above 10 µM each time. Moreover, the IC50 in the assay with A431 cells (setting [3]) is above 10 µM.

As for `C=CC(=O)Nc1ccnc(Nc2nc(Nc3cnn(C)c3)ncc2-c2ccc(C(F)(F)F)cc2)c1` [Compound 196, N-(2-((2-((1-methyl-1H-pyrazol-4-yl)amino)-5-(4-(trifluoromethyl)phenyl)pyrimidin-4-yl)amino)pyridin-4-yl)acrylamide], the GI50 was determined as 3.21 µM in assay [1] and 8.47 µM in assay [2]. Further, in the assay on A431 cells (setting [3]), the IC50 stood at 7.55 µM.

For `C=CC(=O)Nc1cccc(Nc2nc(Nc3cnn(C)c3)ncc2-c2ccc(C(F)(F)F)cc2)n1` [Compound 197, N-(6-((2-((1-methyl-1H-pyrazol-4-yl)amino)-5-(4-(trifluoromethyl)phenyl)pyrimidin-4-yl)amino)pyridin-2-yl)acrylamide], the values for the GI50 in assay [1] and in assay [2] were 0.395 µM and 0.448 µM, respectively. Also, the IC50 with A431 cells (setting [3]) worked out at 0.373 µM.

As for `C=CC(=O)Nc1cc(Nc2nc(Nc3cnn(C)c3)ncc2-c2ccc(C(F)(F)F)cc2)c(F)cn1` [Compound 198, N-[5-fluoro-4-({2-[(1-methyl-1H-pyrazol-4-yl)amino]-5-[4-(trifluoromethyl)phenyl]pyrimidin-4-yl}amino)pyridin-2-yl]prop-2-enamide; trifluoroacetic acid], the GI50 in assay [1] stood at 1.27 µM; in assay [2], 2.64 µM. Also, the IC50 in the assay with A431 cells (setting [4]) turned out to be 2.14 µM.

For the compound `C=CC(=O)Nc1cc(Nc2nc(Nc3cnn(C)c3)ncc2-c2ccc(C(F)(F)F)cc2)ccc1N(C)CCN(C)C` [Compound 199, N-(2-{[2-(dimethylamino)ethyl](methyl)amino}-5-({2-[(1-methyl-1H-pyrazol-4-yl)amino]-5-[4-(trifluoromethyl)phenyl]pyrimidin-4-yl}amino)phenyl)prop-2-enamide], the GI50 stood at 0.239 µM in assay [1] and 0.704 µM in assay [2]. Moreover, the IC50 with A431 cells (setting [4]) worked out at 0.716 µM.

For `C=CC(=O)Nc1cc(Nc2nc(Nc3cnn(C)c3)ncc2-c2ccc(C(F)(F)F)cc2)ccn1` [Compound 200, N-(4-((2-((1-methyl-1H-pyrazol-4-yl)amino)-5-(4-(trifluoromethyl)phenyl)pyrimidin-4-yl)amino)pyridin-2-yl)acrylamide], the figures for the GI50 in assay [1] and in assay [2] were 6.02 µM and 2.76 µM, respectively. Besides, in the assay with A431 cells (setting [4]), the IC50 was 1.28 µM.

Regarding `C=CC(=O)Nc1cc(F)cc(Nc2nc(Nc3cnn(C)c3)ncc2-c2ccc(Br)cc2)c1` [Compound 207, N-(3-((5-(4-bromophenyl)-2-((1-methyl-1H-pyrazol-4-yl)amino)pyrimidin-4-yl)amino)-5-fluorophenyl)acrylamide], the results for the GI50 in assay [1] and in assay [2] were 0.032 µM and 0.031 µM, respectively. Also, the IC50 in the assay on A431 cells (setting [4]) was 0.049 µM.

For `C=CC(=O)Nc1cccc(-n2c3cc(C(F)(F)F)ccc3c3cnc(Nc4cnn(C)c4)nc32)c1` [Compound 209], the GI50 turned out to be 7.97 µM in assay [1] and 9.86 µM in assay [2]. Moreover, in the assay on A431 cells (setting [4]), the IC50 was found to be 5.41 µM.

For `C=CC(=O)Nc1ccc(F)c(Nc2nc(Nc3cc(C)ns3)ncc2-c2ccc(C(F)(F)F)cc2)c1` [Compound 211, N-[4-fluoro-3-({2-[(3-methyl-1,2-thiazol-5-yl)amino]-5-[4-(trifluoromethyl)phenyl]pyrimidin-4-yl}amino)phenyl]prop-2-enamide], the GI50 is 0.404 µM in assay [1] and 0.667 µM in assay [2]. In addition, the IC50 with A431 cells (setting [4]) was found to be 1.6 µM.
